Tested on: Aβ38, Aβ40 and Aβ42 in CSF
Assay: Efficacy study in monkeys: Aβ biomarkers in CSF after single oral administration
Type: in vivo, cynomolgus monkeys
Settings: Monkey CSF
Text: Certain isoforms of amyloid β peptide (AR), such as Aβ338, Aβ340 and Aβ342 have been established as relevant biomarkers that reflect BACE1 activity and have been exploited to establish translational relationships between different cellular assays and animal models. In this efficacy study, mammals were used to assess amyloid β reduction with BACE1 inhibitors. In a clinical setting, plasma and cerebrospinal fluid (CSF) are the accessible compartments to measure soluble amyloid β levels to determine target profile. It is important to analyze plasma and CSF levels which relate to changes in brain amyloid β levels. The concentration of BACE1 inhibitors and their time-dependent reduction of plasma, CSF and brain amyloid β levels were investigated following intravenous and oral administrations of BACE1 inhibitors.
a (ii). Formulation for PO administration: 5% (v/v) PEG400+95% (v/v) of 1% (w/v) methyl cellulose in water (the viscosity of methyl cellulose is 20 g/L, 20° C., cPa·s: 350.0-550.0). The test article solutions were prepared by dissolving the compound in PEG400 followed by the addition of the aqueous solution to the final volume.
For the oral formulation of a BACE1 inhibitor in the monkey efficacy study (at the dose of 20 mg/kg with the concentration of 2 mg/ml)
1) Weighed […] of the selected BACE1 inhibitors into a clean vial;
2) Added 2.826 mL of PEG400 into the tube containing the compound. Then vortexed for 5 min and sonicated for 45 min;
3) Added 53.688 mL of 1% MC in water into the tube containing the compound. Then vortexed for 4 min and sonicated for 4 min; and
4) Adjusted the pH to the physiological value by using 1N NaOH.
Several studies have shown that drug transport into the CNS may be more similar between humans and primates. […] To explore the mechanism of BACE1 compounds, the compounds were tested using this in vivo study. […] The monkey Aβ reduction study usually takes 3 weeks.
The time-course profiles of neurodegeneration biomarkers were determined following single oral administration of the selected BACE1 inhibitors to male cynomolgus monkeys. Blood samples were collected from all animals via the saphenous vein or cephalic vein at 0 (pre-dose), 0.5, 1, 3, 6, 8, 12 and 24 hr post-dose into test tubes containing potassium ethylenediaminotetraacetic acid (K2EDTA). CSF samples were collected via a pre-implanted cannula at the foramina occipital magnum site at 0 (pre-dose), 3, 6, 12 and 24 hr post-dose.
Plasma was separated from the blood by centrifugation at 4° C. and stored at −80° C. until analyzing. The biomarkers of Aβ38, Aβ40 and Aβ42 in CSF were quantified using Meso Scale Discovery (MSD) multiplex electrochemiluminescence immunoassay according to the manufacturer's instructions. The plates were first blocked with 150 μL of Diluent 35 for 1 hour at room temperature with constant shaking at 600 rpm. After washing three times with 200 μL washing buffer, 25 μL of 1× detection antibody solution, plus Aβ40 blocker, 25 μL of seven standards, zero standard and four-fold diluted samples were added to the assay plate. The plate was incubated for 2 hours at room temperature, with constant shaking at 600 rpm. Upon finishing, the plate was washed three times with washing buffer and read in a Sector Imager 6000 (MSD) immediately after addition of 150 μL of 2× Read Buffer T. Aβ concentrations were calculated with reference to the standard curves of each individual peptide and expressed as pg/mL using SoftMax Pro GXP 5.4.4.

Row | Compound | % of maximum Aβ40 inhibition over 24 hours [%]
1 | CC#Cc1ccc2sc3ccc([C@]4(C)CS(=O)(=O)C(C)(C)C(N)=N4)cc3c2c1 [Example 103, (R)-5-Amino-3,6,6-trimethyl-3-(8-(prop-1-yn-1-yl)dibenzo[b,d]thiophen-2-yl)-3,6-dihydro-2H-1,4-thiazine 1,1-dioxide] | 45.9
2 | CC#Cc1ccc2sc3cc(F)c([C@]4(C)CS(=O)(=O)C(C)(C)C(=N)N4)cc3c2c1 [Example 109, (R)-5-Amino-3-(3-fluoro-8-(prop-1-yn-1-yl)dibenzo[b,d]thiophen-2-yl)-3,6,6-trim ethyl-3,6-dihydro-2H-1,4-thiazine 1,1-dioxide] | 37.3

Reference: patent publication US10870635B2, “Compounds and their use as BACE1 inhibitors” (ALLGENESIS BIOTHERAPEUTICS, INC., priority 2015, dated 2020)
